Literature values, collected in US20130115246A1 (Lupin Atlantis Holdings, S.A., priority 2011, published 2013).

Conditions: in vivo

In the case of `CC(C)(Oc1ccc(C(=O)c2ccc(Cl)cc2)cc1)C(=O)O` [Fenofibric acid], the elimination half-life is given as “about 20 hours”.
